Reference: PubChem BioAssay AID256 (DTP/NCI, 2004)
Values joined by “and” are separate entries in the source; they are usually repeats but may differ in a detail not shown here. Identical values can stand only once. Toxic doses and inconclusive results are not listed. The calls were made as follows: active = survival T/C of 150% or more; inactive = T/C below 125% in these data.

Tested on: CD2F1 mice, L1210 leukemia ip, survival T/C
Test: NCI In Vivo Anticancer Drug Screen. Data for tumor model L1210 Leukemia (intraperitoneal) in CD2F1 (CDF1) mice
Details: higher = longer survival
Summary of the method: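 Vehicle-treated tumor-bearing mice served as controls (C) for compound-treated mice (T). Reported figure is T divided by C.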

[1] = endpoint: mean survival time, dose: 100.0 mg/kg/injection, schedule: Q01DX009 (ip), vehicle: saline with Tween-80
[2] = endpoint: mean survival time, dose: 200.0 mg/kg/injection, schedule: Q01DX009 (ip), vehicle: saline with Tween-80
[3] = endpoint: mean survival time, dose: 400.0 mg/kg/injection, schedule: Q01DX009 (ip), vehicle: saline with Tween-80
[4] = endpoint: mean survival time, dose: 100.0 mg/kg/injection, schedule: Q04DX003 (ip), vehicle: saline with Tween-80
[5] = endpoint: mean survival time, dose: 200.0 mg/kg/injection, schedule: Q04DX003 (ip), vehicle: saline with Tween-80
[6] = endpoint: mean survival time, dose: 50.0 mg/kg/injection, schedule: Q01DX009 (ip), vehicle: saline with Tween-80

Measured: T/C

COC(=O)C(Br)C(OC)c1ccc(C)cc1 (centres undefined)
inactive: [1] 94 % of control | endpoint: mean survival time, dose: 100.0 mg/kg/injection, schedule: Q04DX003 (ip), vehicle: saline sonified 95 % of control | [2] 96 % of control | endpoint: mean survival time, dose: 200.0 mg/kg/injection, schedule: Q04DX003 (ip), vehicle: saline sonified 91 % of control | [3] 90 % of control | endpoint: mean survival time, dose: 400.0 mg/kg/injection, schedule: Q04DX003 (ip), vehicle: saline sonified 101 % of control

CC(C)(C)C(=O)CC(=O)C(C)(C)C.CC(C)(C)C(=O)CC(=O)C(C)(C)C.CC(C)(C)C(=O)CC(=O)C(C)(C)C.[Fe]
inactive: [1] 98 % of control | [4] 100 % of control | [2] 97 % of control | [5] 96 % of control | [3] 95 % of control | endpoint: mean survival time, dose: 400.0 mg/kg/injection, schedule: Q04DX003 (ip), vehicle: saline with Tween-80 91 % of control

N#CC(c1ccccn1)N1CCOCC1 (centres undefined)
inactive: endpoint: mean survival time, dose: 12.5 mg/kg/injection, schedule: Q04DX002 (ip), vehicle: saline with Tween-80 97 % of control and 100 % of control | endpoint: mean survival time, dose: 25.0 mg/kg/injection, schedule: Q04DX003 (ip), vehicle: saline with Tween-80 104 % of control | endpoint: mean survival time, dose: 50.0 mg/kg/injection, schedule: Q01DX001 (ip), vehicle: saline with Tween-80 100 % of control | [6] 89 % of control and 103 % of control | endpoint: mean survival time, dose: 50.0 mg/kg/injection, schedule: Q04DX003 (ip), vehicle: saline with Tween-80 109 % of control | endpoint: mean survival time, dose: 100.0 mg/kg/injection, schedule: Q01DX001 (ip), vehicle: saline with Tween-80 94 % of control | [1] 89 % of control and 95 % of control | [4] 107 % of control | endpoint: mean survival time, dose: 200.0 mg/kg/injection, schedule: Q01DX001 (ip), vehicle: saline with Tween-80 100 % of control | endpoint: mean survival time, dose: 200.0 mg/kg/injection, schedule: Q04DX002 (ip), vehicle: saline with Tween-80 98 % of control

O=S=Nc1ccc(S(=O)(=O)c2ccc(N=S=O)cc2)cc1
inactive: [6] 96 % of control | [4] 95 % of control | [2] 101 % of control | [5] 95 % of control

CC(Br)C1(c2cccc([N+](=O)[O-])c2)OCCO1 (centres undefined)
inactive: endpoint: mean survival time, dose: 12.0 mg/kg/injection, schedule: Q01DX009 (ip), vehicle: saline 96 % of control | endpoint: mean survival time, dose: 25.0 mg/kg/injection, schedule: Q01DX009 (ip), vehicle: saline 112 % of control | endpoint: mean survival time, dose: 50.0 mg/kg/injection, schedule: Q01DX009 (ip), vehicle: saline 106 % of control

CC1=CC(=Nc2ccc(N(CCCl)CCCl)cc2)C=C(C)C1=O
inactive: endpoint: mean survival time, dose: 6.25 mg/kg/injection, schedule: Q01DX009 (ip), vehicle: Klucel (hydroxypropylcellulose) (HPC) 115 % of control and 108 % of control | endpoint: mean survival time, dose: 100.0 mg/kg/injection, schedule: Q01DX009 (ip), vehicle: Klucel (hydroxypropylcellulose) (HPC) 86 % of control and 96 % of control

Cc1cc(C)c(NC2=NCCS2)cc1C
inactive: endpoint: mean survival time, dose: 25.0 mg/kg/injection, schedule: Q04DX002 (ip), vehicle: saline with Tween-80 101 % of control | endpoint: mean survival time, dose: 50.0 mg/kg/injection, schedule: Q04DX002 (ip), vehicle: saline with Tween-80 104 % of control | endpoint: mean survival time, dose: 100.0 mg/kg/injection, schedule: Q04DX002 (ip), vehicle: saline with Tween-80 101 % of control

O=C1SC(c2ccccc2)=S=C1c1ccccc1
inactive: endpoint: median survival time, dose: 25.0 mg/kg/injection, schedule: Q01DX009 (ip), vehicle: saline with Tween-80 100 % of control | endpoint: median survival time, dose: 50.0 mg/kg/injection, schedule: Q01DX009 (ip), vehicle: saline with Tween-80 105 % of control | endpoint: median survival time, dose: 100.0 mg/kg/injection, schedule: Q01DX009 (ip), vehicle: saline with Tween-80 103 % of control | endpoint: median survival time, dose: 200.0 mg/kg/injection, schedule: Q01DX009 (ip), vehicle: saline with Tween-80 97 % of control | endpoint: median survival time, dose: 400.0 mg/kg/injection, schedule: Q01DX009 (ip), vehicle: saline with Tween-80 101 % of control
